Test results published in patent US20120328696A1, “ANTI-PARKINSONIAN COMPOUND ACETYLSALICYLIC ACID MALTOL ESTER” (Hutecs Korea Pharmaceutical Co., Ltd., priority 2008, published 2012).

Legend:
Format in all cases: in vivo
[1] = test system: GPx-1 (+/+)- and GPx-1 (−/−)-mice; test: MA-induced hyperthermia (rectal temperature); details: PKC inhibitors intra-striatal (doses of Table 1); MA 8 mg/kg i.p. x4; GPx-1 (+/+) and GPx-1 (−/−) mice
Experimental: (§1) The mice received four times of MA (8 mg/kg, ip) or saline as a 2 hr-time interval. Chemicals (AME, EBS, and PKC inhibitors) were administrated for 5 consecutive days (twice daily), and were given 2 times at 4 hr and 30 min before the first MA injection as shown in the experimental schedule. Animals were sacrificed at 4 hrs and 3 days after the final MA administration.
Rectal temperature was measured in the MA- or saline-treated mice. Measurement was performed at constant daytime intervals starting at 9:00 A.M. to avoid the influence on circadian variations. Rectal temperature was measured by inserting a thermometer probe lubricated with oil at least 3 cm into the rectum of the mice. To prevent sudden movements occurring especially in MA-treated mice, animals were gently handled with a wool glove while their tail was moved to allow the probe insertion. This was done to prevent the effects of restrain stress on rectal temperature. When the attempt to insert probe was not successful (i.e., sudden movements of the animal or the need to restrain the mouse), the animal was excluded from the groups.

[2] = test system: GPx-1 (+/+)- and GPx-1 (−/−)-mice; test: Locomotor activity after MA; details: PKC inhibitors intra-striatal (chelerythrine 0.2 ug/head, rottlerin 3.0 ug/head significant); MA 8 mg/kg i.p. x4; GPx-1 (+/+) and (−/−) mice
Experimental: as §1
Locomotor activity was measured for 30 min 3 days after the last MA administration using an automated video-tracking system (Noldus Information Technology, Wagenin, The Netherlands). Four test boxes (40×40×30 cm high) were operated simultaneously by an IBM computer. Mice were studied individually during locomotion in each test box, where they were adapted for 5 min before starting the experiment. […] The distance traveled in cm by the animals in horizontal locomotor activity was analyzed. Data were collected and analyzed between 09:00 and 17:00 h (Kim et al., 2001).

[3] = test system: GPx-1 (+/+)- and GPx-1 (−/−)-mice; test: Rota-rod test after MA; details: PKC inhibitors intra-striatal (chelerythrine 0.2 ug/head, rottlerin 3.0 ug/head significant); MA 8 mg/kg i.p. x4; GPx-1 (+/+) and (−/−) mice
Experimental: as §1
The apparatus (Ugo Basile model 7650, Comerio, VA, Italy) consisted of a base platform and a rotating rod with a nonslippery surface. The rod was placed at a height of 15 cm from the base. The rod, 30 cm in length, was divided into 5 equal sections by 6 opaque disks (so that the subjects cannot be distracted by one another) To assess motor performance, the mice first trained on the apparatus 2 minutes at a constant rate of 4 r.p.m. per 30 s prior to the test. The test was performed 30 minutes after training and an accelerating paradigm was applied, starting from a rate of 4 r.p.m. to a maximum speed of 40 r.p.m., then the rotation speed was kept constant at 40 r.p.m. for a maximum of 300 s. The duration for which the animal could maintain balance on the rotating drum was measured as the rotarod latency, with a maximal cut-off time of 300 s.

SMILES	effect on MA-induced hyperthermia [1]	effect on MA-induced impairment in locomotor activity [2]	effect on MA-induced impairment in rota-rod performance [3]
Cn1c2ccccc2c2c3c(c4c5ccccc5n(CCC#N)c4c21)CNC3=O [Go 6976]	did not show any significant effect	did not affect MA-induced behavioral impairments	did not affect MA-induced behavioral impairments
O=c1cc(O)cc(/C=C/c2ccc(O)c(O)c2)o1 [hispidin]	did not show any significant effect	did not affect MA-induced behavioral impairments	did not affect MA-induced behavioral impairments
